Where a name gives a salt, the structure may show the parent alone.
Columns and labels:
[1] = system: interoceptive stimulus of apomorphine; assay: Drug discrimination in rats (generalization with apomorphine); type: in vivo; details: 2.5 mg.kg^-1 i.p., 30 minutes before test, hydrochloride
Procedure: Rats were trained to discriminate between the effect of the interoceptive stimulus of apomorphine (0.2 mg.kg^-1 i.p.) and that of physiological saline, according to a principle described by Colpaert F. in "Drug discrimination application in C.N.S. Pharmacology" Ed. Elsevier Biomedical 1982, Amsterdam. […]
Under the experimental conditions employed, the behavior shown by the animals coincides with that noted in the case of administration of apomorphine.

[2] = system: apomorphine-induced hypothermia; assay: Antagonism with respect to apomorphine-induced hypothermia in mice; type: in vivo; details: mice, apomorphine 1 mg.kg^-1 s.c., after 2 hours; for % antagonism of hypothermia: hydrochloride
Procedure: Testing for an antagonism with respect to apomorphine-induced hypothermia in mice was performed according to the method described by CHERMAT R. and PONCELET M. in J. Pharmac. (1983), 14, No. 1, p. 93-97. The dose of apomorphine administered subcutaneously was 1 mg.kg^-1. Tables VII and VIII show the percentage antagonism of the hypothermia observed after 2 hours.

[3] = system: aggression of isolated, bulbectomized rats; assay: Antiaggressive effects: aggression of isolated, bulbectomized rats; type: in vivo; details: i.p., 2.5 mg.kg^-1, hydrochloride
Text: (§1) The antiaggressive effects of the compounds of the invention were investigated by two methods, one of them testing for an inhibition of aggressive behavior in peviously isolated mice (Yen C. Y., Stanger A. L., and Millman N, Arch. Int. Pharmacodyn. Therap. (1959), 123, p. 179-185), and the other in isolated and bulbectomized rats (Garattini S. and Sigg E. B. "Aggressive Behaviour" p. 47-55 Ed. Excerpta Medica Found., Amsterdam, 1969).
(§2) (Tables IX and X, s=significant, p<0.05).

[4] = system: ponto-geniculo-occipital (P.G.O.) waves induced by Ro4-1284; assay: Antagonism of the ponto-geniculo-occipital (P.G.O.) waves induced by Ro4-1284; type: in vivo; details: Felis catus, iv, cats, i.v., read-out: ED50 (effective dose inhibiting by 50% the number of P.G.O. waves)
Procedure: (§3) The antidepressant effects of the compounds of the invention were investigated by assessing the antagonism of reserpine-induced hypothermia and the antagonism of the ponto-geniculo-occipital waves induced by the compound Ro4-1284 in cats.
This study was performed according to the method of Ruch-Monachon M. A., Jalfre M. and Haefely W. described in Arch. Int. Pharm. Therap., (1976), 219, No. 2, p. 251-346, and it enabled the effective dose (i.v) inhibiting by 50% (ED50) the number of P.G.O waves to be assessed.

[5] = system: isolation-induced aggression; assay: Antiaggressive effects: isolation-induced aggression in mice; type: in vivo; details: isolated mice, i.p., hydrochloride
Text: as §1, §2

[6] = system: apomorphine-induced rearing-up; assay: Antagonism of apomorphine-induced rearing-up behavior in mice; type: in vivo; details: mice, apomorphine 0.75 mg.kg^-1 s.c.; for % inhibition of rearing-up: hydrochloride
Procedure: Studied in the test of antagonism of apomorphine-induced rearing-up following the subcutaneous administration of a dose of 0.75 mg.kg^-1 of this substance in mice, the compounds of general formula I act in a clear-cut manner at doses greater than or equal to 2.5 mg.kg^-1 (i.p.). The same results are observed when the compounds of general formula I are administered orally at a dose of 20 mg.kg^-1. The activity of the compounds was assessed according to the method described by Protais P, Costentin J and Schwartz J. C. in Psychopharmacology (1976), 50, p. 1-6.
(§4) (s=significant difference, p<0.05).

[7] = system: apomorphine-induced stereotypy; assay: Antagonism of apomorphine-induced stereotypy in rats; type: in vivo; details: Rattus norvegicus, ip, 0.5 h, rats, apomorphine 1.5 mg.kg^-1 i.p., 30 minutes, read-out: % ISS (inhibition (-) or potentiation (+) of the stereotypy score)
Procedure: (§5) The inhibitory activity of the compounds of the invention with respect to apomorphine- or amphetamine-induced stereotypy in rats was assessed using the scale of scoring of stereotyped movements described by Quinton R. M. and Halliwell G. in Nature (1963), 200, p. 178-179.
Apomorphine or amphetamine was administered to the animals intraperitoneally at a dose of 1.5 mg.kg^-1. The percentage inhibition (-) or potentiation (+) of the stereotypy score (% ISS) shown in Tables IV and V for apomorphine corresponds to a measurement time of 30 minutes. In contrast, the percentage inhibition of the stereotypy score shown in Table VI for amphetamine corresponds to a measurement time of 3 hours. […]

[8] = system: amphetamine-induced stereotypy; assay: Antagonism of amphetamine-induced stereotypy in rats; type: in vivo; details: 3 hours
Procedure: as §5
Apomorphine or amphetamine was administered to the animals intraperitoneally at a dose of 1.5 mg.kg^-1. The percentage inhibition (-) or potentiation (+) of the stereotypy score (% ISS) shown in Tables IV and V for apomorphine corresponds to a measurement time of 30 minutes. In contrast, the percentage inhibition of the stereotypy score shown in Table VI for amphetamine corresponds to a measurement time of 3 hours.
as §4

[9] = system: reserpine-induced hypothermia; assay: Antagonism of reserpine-induced hypothermia; type: in vivo, Swiss CD male mice; details: mice, reserpine 2.5 mg.kg^-1 i.p.
Procedure: as §3
The study is carried out on Swiss CD male mice (27-28 g). After distribution into groups of 10 animals each, reserpine is injected intraperitoneally at a dose of 2.5 mg.kg^-1. Three hours later, the compounds undergoing trial are administered intraperitoneally. The rectal temperature of the animals is measured one hour and two hours after the second treatment, and compared with the initial temperature To of these same animals, measured immediately before the administration of the compounds undergoing trial.

NC1CCc2cc3c(cc2C1)OCC3 (stereo not drawn) [Example 3, d-7-Amino-2,3,5,6,7,8-hexahydronaphtho[2,3-b]furan hydrochloride]
% of animals which generalize [1]: 88% | Number of animals showing the effect of generalization with apomorphine [1]: 8/9 | % antagonism of hypothermia ([2]; i.p. dose 2.5): -72% | % antagonism of hypothermia ([2]; i.p. dose 5): -79% | % antagonism of hypothermia ([2]; i.p. dose 10): -91% | % antagonism of hypothermia ([2]; i.p. dose 20): -86% | % of rats rendered non-aggressive [3]: 64% | ED50 [4]: 0.13 mg/kg | % of pairs of mice showing no sign of fighting ([5]; 2.5 mg.kg^-1): 56% | % of pairs of mice showing no sign of fighting ([5]; 5 mg.kg^-1): 78% | % inhibition of rearing-up ([6]; i.p. dose 10 mg.kg^-1): -72% | % inhibition of rearing-up ([6]; i.p. dose 20 mg.kg^-1): -79%

O=C(O)CCCCCCNC1CCc2cc3c(cc2C1)OCC3 (racemic) [Example 12, dl-7-{N-(2,3,5,6,7,8-Hexahydronaphtho[2,3-b]furan-7-yl)amino}heptanoic acid hydrochloride]
change in vivo at 10 mg/kg ([7]; i.p. dose 10 mg.kg^-1): 19% | change in vivo at 20 mg/kg ([7]; i.p. dose 20 mg.kg^-1): -3% | change in vivo at 10 mg/kg ([2]; Mus musculus, ip, i.p. dose 10, read-out: % antagonism of hypothermia): -4% | change in vivo at 20 mg/kg ([2]; Mus musculus, ip, i.p. dose 20, read-out: % antagonism of hypothermia): -2% | ED50 [4]: > 2.52 mg/kg | % ISS (inhibition (-) or potentiation (+) of the stereotypy score) ([8]; i.p. dose 5 mg.kg^-1, amphetamine 1.5 mg.kg^-1 i.p.): +11% | % ISS (inhibition (-) or potentiation (+) of the stereotypy score) ([8]; i.p. dose 10 mg.kg^-1, amphetamine 1.5 mg.kg^-1 i.p.): +14% | % inhibition of hypothermia ([9]; 5 mg.kg^-1 i.p.): -23% | % inhibition of hypothermia ([9]; 10 mg.kg^-1 i.p.): -45% | % inhibition of hypothermia ([9]; 20 mg.kg^-1 i.p.): -18% | change in vivo at 10 mg/kg ([6]; Mus musculus, ip, i.p. dose 10 mg.kg^-1, read-out: % inhibition of rearing-up): -17% | change in vivo at 20 mg/kg ([6]; Mus musculus, ip, i.p. dose 20 mg.kg^-1, read-out: % inhibition of rearing-up): -20%
